The numbers were not newly measured in patent US11441162B2, “Human gut microbiome-derived biosynthetic enzymes for production of fatty acid amides” (Massachusetts Institute of Technology, priority 2019, dated 2022), which cites them from elsewhere.

In this data set the target is T1, GPR119 (Homo sapiens, UniProt Q8TDV5).
T1 sequence (Q8TDV5 1-335): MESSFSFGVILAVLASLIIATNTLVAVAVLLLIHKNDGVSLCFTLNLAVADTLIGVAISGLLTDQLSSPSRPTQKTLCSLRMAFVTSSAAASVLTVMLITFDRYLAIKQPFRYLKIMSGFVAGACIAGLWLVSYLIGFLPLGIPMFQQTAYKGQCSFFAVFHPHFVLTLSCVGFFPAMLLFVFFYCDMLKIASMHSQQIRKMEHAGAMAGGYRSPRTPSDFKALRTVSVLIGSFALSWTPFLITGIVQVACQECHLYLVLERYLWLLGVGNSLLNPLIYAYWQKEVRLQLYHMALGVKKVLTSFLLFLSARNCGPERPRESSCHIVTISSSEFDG
The conditions noted are these: previously reported human microbiome-derived FAA GPCR modulator; read-out: GPR119 agonist at (previously reported); cited from earlier work.

Take `CCCCCCCC/C=C\CCCCCCCC(=O)NC(CO)CO` [oleoyl serinol]: the EC50 was 7 µM.
